Source: PMC9730523 (Frontiers in Immunology, 2022)

Legend:
[1] = target: T1, mMC4 (Mus musculus, UniProt P56450); assay: cAMP accumulation assay, transfected HEK293A; assay type: cell-based; conditions: HEK293-A, 0.25 h, normalised maximal efficacy at 2μM, percentage of maximal αMSH response, read-out: Top
T1 construct: host or cells: HEK293A
Protocol: (§1) HEK293A cells were maintained in DMEM containing 10% fetal calf serum (FCS), 2 mM L-glutamine, 100 U/ml penicillin, and 100 μg/ml streptomycin and kept at 37°C with 5% CO2. […] Compound solutions were prepared in serum-free DMEM containing 10 mM 3-isobutyl-1-methylxanthine (IBMX; Sigma), to inhibit phosphodiesterase activity. […] Optical Density (OD) measurements were converted to cAMP concentration using a standard curve and results were normalized subtracting background signal and calculated as % of forskolin.

[2] = target: T2, hMC4 (Homo sapiens, UniProt P32245); assay: cAMP accumulation assay, transfected HEK293A; assay type: cell-based; conditions: HEK293-A, 0.25 h, normalised maximal efficacy at 2μM, percentage of maximal αMSH response, read-out: Top
T2 construct: host or cells: HEK293A
Protocol: as §1

[3] = target: T1, mMC4; assay: ERK1/2 phosphorylation assay, transfected HEK293A; assay type: cell-based; conditions: HEK293-A, 5 min; p-ERK1/2, mMC4; normalised maximal efficacy at 2μM, percentage of maximal αMSH response; read-out: Top
Protocol: (§2) HEK293A cells were maintained in DMEM containing 10% fetal calf serum (FCS), 2 mM L-glutamine, 100 U/ml penicillin, and 100 μg/ml streptomycin and kept at 37°C with 5% CO2. […] Total protein was also quantified by Bradford to normalize p-ERK1/2 response.

[4] = target: T2, hMC4; assay: ERK1/2 phosphorylation assay, transfected HEK293A; assay type: cell-based; conditions: HEK293-A, 5 min; p-ERK1/2, hMC4; normalised maximal efficacy at 2μM, percentage of maximal αMSH response; read-out: Top
Protocol: as §2

[5] = humans, single subcutaneous administration; cited from earlier work
[6] = target: T3, mMC1 (Mus musculus, UniProt Q01727); assay: ERK1/2 phosphorylation assay, transfected HEK293A; assay type: cell-based; parameters: host or cells: HEK293A; conditions: HEK293-A, 5 min; p-ERK1/2, mMC1; normalised maximal efficacy at 2μM, percentage of maximal αMSH response; read-out: Top
Protocol: (§3) HEK293A cells were maintained in DMEM containing 10% fetal calf serum (FCS), 2 mM L-glutamine, 100 U/ml penicillin, and 100 μg/ml streptomycin and kept at 37°C with 5% CO2.
(§4) Twenty-four hours after transfection, cells were serum-starved for 3 hours to reduce and stabilize basal levels of phospho-ERK1/2. Concentration response curves were generated by 1/5 serial dilutions as above. Drug solutions were prepared in serum-free DMEM. Cells were stimulated for 5 min with the different compounds and lysed immediately with ice-cold extraction buffer supplied in the ERK1/2 (pT202/Y204) SimpleStep ELISA Kit (Abcam ab176640; Cambridge, UK), according to manufacturer instructions. Total protein was also quantified by Bradford to normalize p-ERK1/2 response.

[7] = target: T4, mMC5 (Mus musculus, UniProt P41149); assay: ERK1/2 phosphorylation assay, transfected HEK293A; assay type: cell-based; parameters: host or cells: HEK293A; conditions: HEK293-A, 5 min; p-ERK1/2, mMC5; normalised maximal efficacy at 2μM, percentage of maximal αMSH response; read-out: Top
Protocol: as §3, §4

[8] = target: T5, hMC1 (Homo sapiens, UniProt Q01726); assay: ERK1/2 phosphorylation assay, transfected HEK293A; assay type: cell-based; parameters: host or cells: HEK293A; conditions: 5 min; p-ERK1/2, hMC1; normalised maximal efficacy at 2μM, percentage of maximal αMSH response; read-out: Top
Protocol: as §3, §4

[9] = target: T6, hMC3 (Homo sapiens, UniProt P41968); assay: ERK1/2 phosphorylation assay, transfected HEK293A; assay type: cell-based; parameters: host or cells: HEK293A; conditions: 5 min; p-ERK1/2, hMC3; normalised maximal efficacy at 2μM, percentage of maximal αMSH response; read-out: Top
Protocol: as §3, §4

[10] = target: T7, hMC5 (Homo sapiens, UniProt P33032); assay: ERK1/2 phosphorylation assay, transfected HEK293A; assay type: cell-based; parameters: host or cells: HEK293A; conditions: HEK293-A, 5 min; p-ERK1/2, hMC5; normalised maximal efficacy at 2μM, percentage of maximal αMSH response; read-out: Top
Protocol: as §3, §4

[11] = target: T3, mMC1; assay: cAMP accumulation assay, transfected HEK293A; parameters: dose or concentration left out as unconfirmed; conditions: HEK293-A, 0.25 h, read-out: Top
Protocol: as §3
(§5) Twenty-four hours after transfection, cells were serum-starved for 3 hours to reduce and stabilize basal levels of cAMP. Melanocortin agonists were tested using 1/5 serial dilutions to generate concentration response curves starting at 10 or 0.4 µM. Vehicle was used as negative control, and forskolin (3 µM, Tocris Bioscience) as positive control. Compound solutions were prepared in serum-free DMEM containing 10 mM 3-isobutyl-1-methylxanthine (IBMX; Sigma), to inhibit phosphodiesterase activity. […] Optical Density (OD) measurements were converted to cAMP concentration using a standard curve and results were normalized subtracting background signal and calculated as % of forskolin.

[12] = target: T4, mMC5; assay: cAMP accumulation assay, transfected HEK293A; parameters: dose or concentration left out as unconfirmed; conditions: HEK293-A, 0.25 h, read-out: Top
Protocol: as §3, §5

[13] = target: T5, hMC1; assay: cAMP accumulation assay, transfected HEK293A; parameters: dose or concentration left out as unconfirmed; conditions: HMC1, 0.25 h, read-out: Top
Protocol: as §3, §5

[14] = target: T6, hMC3; assay: cAMP accumulation assay, transfected HEK293A; parameters: dose or concentration left out as unconfirmed; conditions: HMC3, 0.25 h, read-out: Top
Protocol: as §3, §5

[15] = target: T7, hMC5; assay: cAMP accumulation assay, transfected HEK293A; parameters: dose or concentration left out as unconfirmed; conditions: HEK293-A, 0.25 h, read-out: Top
Protocol: as §3, §5

T6 sequence (P41968 whole entry): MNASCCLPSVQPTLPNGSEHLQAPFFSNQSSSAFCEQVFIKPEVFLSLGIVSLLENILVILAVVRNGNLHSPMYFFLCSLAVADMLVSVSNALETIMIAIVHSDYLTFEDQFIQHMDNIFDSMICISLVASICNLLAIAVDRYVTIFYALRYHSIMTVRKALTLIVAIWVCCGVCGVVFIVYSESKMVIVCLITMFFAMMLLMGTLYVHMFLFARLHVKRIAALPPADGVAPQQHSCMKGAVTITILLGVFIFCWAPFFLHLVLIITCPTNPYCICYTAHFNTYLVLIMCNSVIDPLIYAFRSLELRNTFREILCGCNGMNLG
T5 sequence (Q01726 whole entry): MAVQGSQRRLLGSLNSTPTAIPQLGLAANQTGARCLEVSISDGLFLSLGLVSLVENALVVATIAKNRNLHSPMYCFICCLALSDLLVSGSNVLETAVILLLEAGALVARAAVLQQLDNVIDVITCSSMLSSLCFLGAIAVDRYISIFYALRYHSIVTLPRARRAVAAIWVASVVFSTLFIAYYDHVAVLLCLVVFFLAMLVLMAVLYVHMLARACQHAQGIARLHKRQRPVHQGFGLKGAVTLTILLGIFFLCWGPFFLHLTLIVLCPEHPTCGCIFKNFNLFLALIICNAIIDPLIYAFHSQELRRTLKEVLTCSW
T3 sequence (Q01727 whole entry): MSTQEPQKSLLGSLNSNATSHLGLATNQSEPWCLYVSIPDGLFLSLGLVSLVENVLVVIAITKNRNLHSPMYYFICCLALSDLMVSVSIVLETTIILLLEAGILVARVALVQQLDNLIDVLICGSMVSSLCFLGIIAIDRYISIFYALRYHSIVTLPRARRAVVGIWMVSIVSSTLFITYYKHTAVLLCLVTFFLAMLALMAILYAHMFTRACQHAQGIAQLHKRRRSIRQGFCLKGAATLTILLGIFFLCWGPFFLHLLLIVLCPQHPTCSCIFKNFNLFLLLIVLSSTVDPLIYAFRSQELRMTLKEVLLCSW
T1 sequence (P56450 whole entry): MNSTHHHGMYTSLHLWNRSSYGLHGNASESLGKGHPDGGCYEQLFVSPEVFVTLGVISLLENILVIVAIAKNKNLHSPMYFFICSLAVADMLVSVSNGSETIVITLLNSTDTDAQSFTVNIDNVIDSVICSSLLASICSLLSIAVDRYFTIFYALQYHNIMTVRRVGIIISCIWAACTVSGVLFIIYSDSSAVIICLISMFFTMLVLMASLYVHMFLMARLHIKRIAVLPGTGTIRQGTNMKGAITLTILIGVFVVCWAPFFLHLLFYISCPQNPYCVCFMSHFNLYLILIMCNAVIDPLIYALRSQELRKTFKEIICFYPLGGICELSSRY
T4 sequence (P41149 whole entry): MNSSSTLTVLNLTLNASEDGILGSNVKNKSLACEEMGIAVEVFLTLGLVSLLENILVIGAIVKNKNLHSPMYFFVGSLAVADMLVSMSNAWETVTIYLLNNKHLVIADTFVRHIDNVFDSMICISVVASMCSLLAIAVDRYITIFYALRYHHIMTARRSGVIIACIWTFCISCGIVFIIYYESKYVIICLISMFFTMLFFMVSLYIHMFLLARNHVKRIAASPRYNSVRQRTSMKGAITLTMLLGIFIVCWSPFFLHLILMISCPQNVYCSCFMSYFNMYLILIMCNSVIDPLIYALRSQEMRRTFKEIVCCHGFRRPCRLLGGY
T2 sequence (P32245 whole entry): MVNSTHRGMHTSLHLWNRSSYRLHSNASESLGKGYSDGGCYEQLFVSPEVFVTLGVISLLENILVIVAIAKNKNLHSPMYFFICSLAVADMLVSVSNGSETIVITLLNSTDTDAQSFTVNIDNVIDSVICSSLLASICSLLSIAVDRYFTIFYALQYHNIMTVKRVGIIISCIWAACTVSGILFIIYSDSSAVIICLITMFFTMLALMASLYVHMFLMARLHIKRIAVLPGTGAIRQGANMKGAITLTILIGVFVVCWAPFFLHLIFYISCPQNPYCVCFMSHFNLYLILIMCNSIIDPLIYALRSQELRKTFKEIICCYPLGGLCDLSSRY
T7 sequence (P33032 whole entry): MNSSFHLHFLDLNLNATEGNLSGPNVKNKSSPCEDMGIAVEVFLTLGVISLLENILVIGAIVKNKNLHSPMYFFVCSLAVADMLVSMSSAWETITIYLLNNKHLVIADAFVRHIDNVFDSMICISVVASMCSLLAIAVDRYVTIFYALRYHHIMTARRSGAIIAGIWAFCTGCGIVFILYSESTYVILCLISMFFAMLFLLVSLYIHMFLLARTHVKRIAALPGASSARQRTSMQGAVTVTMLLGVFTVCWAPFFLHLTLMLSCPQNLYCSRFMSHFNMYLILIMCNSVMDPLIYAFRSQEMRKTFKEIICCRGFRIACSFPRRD

Question: With `CCCC[C@H](NC(C)=O)C(=O)N[C@H]1CCC(=O)NC[C@@H](C(=O)N[C@@H](Cc2c[nH]c3ccccc23)C(N)=O)NC(=O)[C@H](CCCNC(=N)N)NC(=O)[C@@H](Cc2ccccc2)NC(=O)[C@H](Cc2c[nH]cn2)NC1=O` [PL8177, Ac-Nle^1-cyclo(Glu^2-L-His^3-D-Phe^4-Arg^5-Dap^6)-Trp^7-NH2] as the molecule, how does the Emax at 2 µM [1] read?
Answer: The Emax at 2 µM was 75.1%.

Question: And the Emax at 2 µM [2]?
Answer: Its Emax at 2 µM is 26.5%.

Question: What about the Emax [3] of the same molecule?
Answer: Its Emax is 80.7%.

Question: And the Emax [4]?
Answer: Its Emax is 56.1%.

Question: And the “persisting plasma levels after administration” value [5]?
Answer: Its value is 48 h.

Question: What about the Emax [6] of the same molecule?
Answer: Its Emax is 99.7%.

Question: What about the Emax [7] of the same molecule?
Answer: Its Emax is 18.6%.

Question: What about the Emax [8] of the same molecule?
Answer: Its Emax is 136%.

Question: What about the Emax [9] of the same molecule?
Answer: Its Emax is 70.1%.

Question: And the Emax [10]?
Answer: Its Emax is 62.7%.

Question: What about the Emax [11] of the same molecule?
Answer: The Emax was 103%.

Question: And the Emax [12]?
Answer: Its Emax is 14.8%.

Question: What about the Emax [13] of the same molecule?
Answer: The Emax was 112%.

Question: And the Emax [14]?
Answer: Its Emax is 10.9%.

Question: And the Emax [15]?
Answer: Its Emax is 38.2%.
